Experimental data taken from PubChem BioAssay (NCI).
Several values for one entry are separate records, joined by “and”; a condition that tells them apart may be missing. Equal entries are not always repeated.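 Assay format: 96-well plates, 48-hour exposure. GI50: concentration for 50% inhibition of growth. TGI is the concentration that stops growth completely.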

Tests used:
Test in all cases: NCI anticancer screen, dose series, 48 h
DMS 273 small cell lung = test system: DMS 273 small cell lung
HOP-18 NSCLC = test system: HOP-18 NSCLC
U251 CNS = test system: U251 CNS
LXFL 529 NSCLC = test system: LXFL 529 NSCLC
SNB-78 CNS = test system: SNB-78 CNS
LOX IMVI melanoma = test system: LOX IMVI melanoma
SN12C renal = test system: SN12C renal
XF 498 CNS = test system: XF 498 CNS
OVCAR-8 ovarian = test system: OVCAR-8 ovarian
KM20L2 colon = test system: KM20L2 colon
T-47D breast = test system: T-47D breast
MDA-MB-435 = test system: MDA-MB-435
DU-145 prostate = test system: DU-145 prostate

CC(C)c1cccc(C(C)C)c1NC(=O)C(=O)C1SC(=S)NC1=O (stereo not drawn)
TGI (DMS 273 small cell lung): > 100 µM
TGI (HOP-18 NSCLC): > 100 µM
TGI (U251 CNS): > 100 µM
TGI (LXFL 529 NSCLC): > 100 µM
TGI (SNB-78 CNS): > 100 µM
TGI (LOX IMVI melanoma): > 100 µM
TGI (SN12C renal): > 100 µM
TGI (XF 498 CNS): > 100 µM
TGI (OVCAR-8 ovarian): > 100 µM
TGI (KM20L2 colon): > 100 µM

COc1cc2c3cc1Oc1c(OC)c(OC)cc4c1C(Cc1ccc(cc1)Oc1cc(ccc1O)CC3N(C)CC2)N(C)CC4 (stereo not drawn)
TGI (HOP-18 NSCLC): > 100 µM
TGI (U251 CNS): 23.8 µM and 30.5 µM
TGI (LXFL 529 NSCLC): 27.8 µM
TGI (SNB-78 CNS): 64.6 µM
TGI (T-47D breast): 26.8 µM
GI50 (LOX IMVI melanoma): 6.39 µM and 2.56 µM
TGI (LOX IMVI melanoma): 19.1 µM
TGI (SN12C renal): 61.3 µM and 30.6 µM
TGI (MDA-MB-435): 31.9 µM
TGI (DU-145 prostate): 24.8 µM
TGI (OVCAR-8 ovarian): > 100 µM and 34.8 µM
TGI (KM20L2 colon): 24.7 µM

O=S(=O)(N/N=C/c1ccc(Cl)cc1Cl)c1ccccc1
TGI (DMS 273 small cell lung): > 100 µM
TGI (HOP-18 NSCLC): > 100 µM
TGI (U251 CNS): > 100 µM
TGI (LXFL 529 NSCLC): > 100 µM
TGI (SNB-78 CNS): > 100 µM
TGI (LOX IMVI melanoma): > 100 µM
TGI (SN12C renal): > 100 µM
TGI (XF 498 CNS): > 100 µM
TGI (OVCAR-8 ovarian): > 100 µM
TGI (KM20L2 colon): > 100 µM

[O-][n+]1c2cc(CN3CCOCC3)c(CN3CCOCC3)cc2[n+]([O-])c2c(O)cccc21
TGI (DMS 273 small cell lung): 15 µM
TGI (HOP-18 NSCLC): 18.6 µM
TGI (U251 CNS): 7.09 µM
TGI (LXFL 529 NSCLC): 7.73 µM
TGI (SNB-78 CNS): 21.9 µM
TGI (LOX IMVI melanoma): 16.3 µM
TGI (SN12C renal): 13 µM
TGI (XF 498 CNS): 7.42 µM
TGI (OVCAR-8 ovarian): 7.12 µM
TGI (KM20L2 colon): 15.4 µM

COc1cc(/C=C\c2ccc(Cl)cc2)cc(OC)c1OC
TGI (DMS 273 small cell lung): 19.4 µM
TGI (HOP-18 NSCLC): > 100 µM
TGI (U251 CNS): > 100 µM
TGI (LXFL 529 NSCLC): > 95.1 µM
TGI (LOX IMVI melanoma): > 100 µM
TGI (SN12C renal): > 100 µM
TGI (XF 498 CNS): 19.1 µM
TGI (OVCAR-8 ovarian): > 100 µM
TGI (KM20L2 colon): 0.372 µM

CCOC(=O)C1Oc2ccc([N+](=O)[O-])cc2C1(C)O (stereo not drawn)
TGI (DMS 273 small cell lung): > 100 µM
TGI (U251 CNS): > 100 µM
TGI (LXFL 529 NSCLC): > 100 µM
TGI (SNB-78 CNS): > 100 µM
TGI (LOX IMVI melanoma): > 100 µM
TGI (SN12C renal): > 100 µM
TGI (XF 498 CNS): > 100 µM
TGI (OVCAR-8 ovarian): > 100 µM

CCOC(=O)/C=C1\Oc2ccccc2C1(C)O (stereo not drawn)
TGI (DMS 273 small cell lung): > 100 µM
TGI (HOP-18 NSCLC): > 100 µM
TGI (U251 CNS): > 100 µM
TGI (LXFL 529 NSCLC): > 100 µM
TGI (SNB-78 CNS): > 100 µM
TGI (LOX IMVI melanoma): > 100 µM
TGI (SN12C renal): > 100 µM
TGI (OVCAR-8 ovarian): > 100 µM
TGI (KM20L2 colon): > 100 µM

Cc1cccc(N=C2NC(=O)C(CC(=O)Nc3ccccc3Cl)S2)c1 (stereo not drawn)
TGI (DMS 273 small cell lung): > 100 µM
TGI (LXFL 529 NSCLC): > 100 µM
TGI (SNB-78 CNS): > 100 µM
TGI (LOX IMVI melanoma): > 100 µM
TGI (SN12C renal): > 100 µM
TGI (XF 498 CNS): > 100 µM
TGI (OVCAR-8 ovarian): > 100 µM
TGI (KM20L2 colon): > 100 µM

Nc1ccc(C2=Nc3ccccc3SC(c3ccccc3O)C2)cc1 (stereo not drawn)
TGI (DMS 273 small cell lung): > 100 µM
TGI (HOP-18 NSCLC): > 100 µM
TGI (U251 CNS): > 100 µM
TGI (LXFL 529 NSCLC): > 100 µM
TGI (LOX IMVI melanoma): > 100 µM
TGI (SN12C renal): > 100 µM
TGI (XF 498 CNS): 78.5 µM
TGI (OVCAR-8 ovarian): > 100 µM
TGI (KM20L2 colon): > 100 µM

COC1OC(C(C)O)C2OC(C)(C)OC12 (stereo not drawn)
TGI (U251 CNS): > 100 µM
TGI (T-47D breast): > 100 µM
TGI (LOX IMVI melanoma): > 100 µM
TGI (SN12C renal): > 100 µM
TGI (MDA-MB-435): > 100 µM
TGI (DU-145 prostate): > 100 µM
TGI (OVCAR-8 ovarian): > 100 µM

Cc1ccc([N+](=O)[O-])c2c(NCCC[N+](C)(C)[O-])ccnc12
TGI (U251 CNS): > 100 µM
TGI (T-47D breast): > 100 µM
TGI (LOX IMVI melanoma): > 100 µM
TGI (SN12C renal): > 100 µM
TGI (MDA-MB-435): > 100 µM
TGI (DU-145 prostate): > 100 µM
TGI (OVCAR-8 ovarian): > 100 µM

COc1ccc(/C=N\O[Si](C)(C)C(C)(C)C)cc1O[Si](C)(C)C(C)(C)C
TGI (DMS 273 small cell lung): 34.1 µM
TGI (HOP-18 NSCLC): 31.1 µM
TGI (U251 CNS): 36 µM
TGI (LXFL 529 NSCLC): 29.9 µM
TGI (SNB-78 CNS): 36.1 µM
TGI (LOX IMVI melanoma): 36.5 µM
TGI (SN12C renal): 35.1 µM
TGI (XF 498 CNS): 32.7 µM
TGI (OVCAR-8 ovarian): 45.2 µM
TGI (KM20L2 colon): > 100 µM

CCCC(CCC)C(=O)OCC1(CO)C/C(=C\c2ccc(C(F)(F)F)cc2)C(=O)O1 (stereo not drawn)
GI50 (U251 CNS): 7.61 µM
TGI (U251 CNS): 22.5 µM
GI50 (T-47D breast): 14.7 µM
TGI (T-47D breast): 29.4 µM
GI50 (LOX IMVI melanoma): 10 µM
TGI (LOX IMVI melanoma): 22.8 µM
GI50 (SN12C renal): 11.9 µM
TGI (SN12C renal): 25.7 µM
GI50 (MDA-MB-435): 0.304 µM
TGI (MDA-MB-435): 19.3 µM
GI50 (DU-145 prostate): 13.4 µM
TGI (DU-145 prostate): 27.8 µM
GI50 (OVCAR-8 ovarian): 21 µM
TGI (OVCAR-8 ovarian): 41 µM

NNC(=S)N/N=C(/C(=O)Nc1ccc([N+](=O)[O-])cc1)c1nc2ccc([N+](=O)[O-])cc2[nH]c1=O
TGI (HOP-18 NSCLC): > 100 µM
TGI (U251 CNS): > 100 µM
TGI (SNB-78 CNS): > 100 µM
TGI (LOX IMVI melanoma): > 100 µM
TGI (SN12C renal): > 100 µM
TGI (XF 498 CNS): > 100 µM
TGI (OVCAR-8 ovarian): > 100 µM

COC(=O)C1C(/C=C/c2ccoc2)ON2CCC[C@@H]12 (stereo partly drawn)
TGI (DMS 273 small cell lung): > 100 µM
TGI (HOP-18 NSCLC): 98 µM
TGI (U251 CNS): > 100 µM
TGI (LXFL 529 NSCLC): > 100 µM
TGI (SNB-78 CNS): > 100 µM
TGI (LOX IMVI melanoma): > 100 µM
TGI (SN12C renal): > 100 µM
TGI (OVCAR-8 ovarian): > 100 µM
TGI (KM20L2 colon): > 100 µM

NS(=O)(=O)c1ccc(N2N=C(c3cccs3)CC2c2ccccc2O)cc1 (stereo not drawn)
GI50 (U251 CNS): 0.998 µM
TGI (U251 CNS): 3.73 µM
GI50 (T-47D breast): 2.24 µM
TGI (T-47D breast): 18.8 µM
GI50 (LOX IMVI melanoma): 1.25 µM
TGI (LOX IMVI melanoma): 5.22 µM
GI50 (SN12C renal): 1.2 µM
TGI (SN12C renal): 4.78 µM
GI50 (MDA-MB-435): 0.704 µM
TGI (MDA-MB-435): 1.8 µM
GI50 (DU-145 prostate): 0.903 µM
TGI (DU-145 prostate): 2.33 µM
GI50 (OVCAR-8 ovarian): 0.907 µM
TGI (OVCAR-8 ovarian): 2.78 µM

Cc1cc(Cl)ccc1NC(=O)C(=O)Cc1occc(=O)c1O
TGI (DMS 273 small cell lung): > 100 µM
TGI (HOP-18 NSCLC): > 100 µM
TGI (U251 CNS): > 100 µM
TGI (LXFL 529 NSCLC): > 100 µM
TGI (SNB-78 CNS): > 100 µM
TGI (LOX IMVI melanoma): > 100 µM
TGI (SN12C renal): > 100 µM
TGI (XF 498 CNS): > 100 µM
TGI (OVCAR-8 ovarian): > 100 µM
TGI (KM20L2 colon): > 100 µM

O=c1[nH]c2c(c3ccccc13)CCc1ccccc1-2
TGI (DMS 273 small cell lung): > 100 µM
TGI (U251 CNS): > 100 µM
TGI (LXFL 529 NSCLC): > 100 µM
TGI (SNB-78 CNS): > 100 µM
TGI (SN12C renal): > 100 µM
TGI (OVCAR-8 ovarian): > 100 µM
TGI (KM20L2 colon): > 100 µM

CCC(=O)c1c(C(F)(F)F)n([O-])c2ccccc2[n+]1=O
GI50 (U251 CNS): 2.16 µM
TGI (U251 CNS): 13 µM
GI50 (T-47D breast): 2.27 µM
TGI (T-47D breast): 31.1 µM
GI50 (LOX IMVI melanoma): 1.39 µM
TGI (LOX IMVI melanoma): 3.38 µM
GI50 (SN12C renal): 1.98 µM
TGI (SN12C renal): 7.29 µM
GI50 (MDA-MB-435): 2.41 µM
TGI (MDA-MB-435): 10.4 µM
GI50 (DU-145 prostate): 1.59 µM
TGI (DU-145 prostate): 3.27 µM
GI50 (OVCAR-8 ovarian): 1.77 µM
TGI (OVCAR-8 ovarian): > 32 µM

Clc1ccc(/C=C/c2nc(Cl)c(-c3ccc(Cl)cc3)c(Cl)n2)cc1
TGI (U251 CNS): > 100 µM
TGI (T-47D breast): > 100 µM
TGI (LOX IMVI melanoma): > 100 µM
TGI (SN12C renal): > 100 µM
TGI (MDA-MB-435): > 100 µM
TGI (DU-145 prostate): > 100 µM
TGI (OVCAR-8 ovarian): > 100 µM

COC1C(O)C(C)OC(O[C@@H]2C[C@H]3CC[C@@H]4[C@H](CC[C@]5(C)[C@@H](C6=CC(=O)OC6)CC[C@]45O)[C@@]3(C)[C@H](O)C2)C1O (stereo partly drawn)
TGI (U251 CNS): 12.5 µM
TGI (T-47D breast): 0.817 µM
TGI (LOX IMVI melanoma): 0.233 µM
TGI (SN12C renal): 0.0591 µM
TGI (MDA-MB-435): 0.379 µM
TGI (DU-145 prostate): 0.0812 µM
TGI (OVCAR-8 ovarian): 0.268 µM
